Measured values published in US20240245652A1, “METHODS AND COMPOSITIONS FOR MANAGING PAIN COMPRISING DEXMEDETOMIDINE TRANSDERMAL COMPOSITIONS” (Teikoku Pharma USA, Inc., priority 2013, published 2024).
Read-outs that look alike come from different tables or passages of the source.

- solubility of dexmedetomidine (in Duro-Tak 87-2979): less than 2%
- solubility of dexmedetomidine (in Duro-Tak 387/87-2353): 10-15%
- solubility of dexmedetomidine (in hydroxyl functionalized acrylate polymer): less than 1%
- solubility of dexmedetomidine (in lauryl lactate): 5 to 10%
- solubility of dexmedetomidine (in levulinic acid): ~60%
- solubility of dexmedetomidine (in oleic acid): ~40%
- solubility of dexmedetomidine (in propylene glycolmonolaurate): 5 to 10%
SMILES: Cc1cccc([C@H](C)c2cnc[nH]2)c1C [dexmedetomidine, Dexmedetomidine]
